In ChEMBL document CHEMBL1201862, “PubChem BioAssay data set” (2004):
Each block holds one molecule with its values, some of them ahead of it. Activity calls are given as the source filed them.

Assays:
[1] = target: FAD-linked sulfhydryl oxidase ALR (Homo sapiens, UniProt P55789); experiment: ALR-catalysed DTT oxidation blockers – biochemical, H2O2 detection, luminescence, cherry-pick, dose response (AID 493248)
[2] = target: T1, Rac GTPase-activating protein 1 (Homo sapiens, UniProt Q9H0H5); experiment: blockers of MgcRacGAP-driven Rac1 GTP hydrolysis – biochemical, ADP Hunter fluorescence, primary and confirmatory, confirmation (AID 624330); assay type: functional
T1 sequence (Q9H0H5 whole entry): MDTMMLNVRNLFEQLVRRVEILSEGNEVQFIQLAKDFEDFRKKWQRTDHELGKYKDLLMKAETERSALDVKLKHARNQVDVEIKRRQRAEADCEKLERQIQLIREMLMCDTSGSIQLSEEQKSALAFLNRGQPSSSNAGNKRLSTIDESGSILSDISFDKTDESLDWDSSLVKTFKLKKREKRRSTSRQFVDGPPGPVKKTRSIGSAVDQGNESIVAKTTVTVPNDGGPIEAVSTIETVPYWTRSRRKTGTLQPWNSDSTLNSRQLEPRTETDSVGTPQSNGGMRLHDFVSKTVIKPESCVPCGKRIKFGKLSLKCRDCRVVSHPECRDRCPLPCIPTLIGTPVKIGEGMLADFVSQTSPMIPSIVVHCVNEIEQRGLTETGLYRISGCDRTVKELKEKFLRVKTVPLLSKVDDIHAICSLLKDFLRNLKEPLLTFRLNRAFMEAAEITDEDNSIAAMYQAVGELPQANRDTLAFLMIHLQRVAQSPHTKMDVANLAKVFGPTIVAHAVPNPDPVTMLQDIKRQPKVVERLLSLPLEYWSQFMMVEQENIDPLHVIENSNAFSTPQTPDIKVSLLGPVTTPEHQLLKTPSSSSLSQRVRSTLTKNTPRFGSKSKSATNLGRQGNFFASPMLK

[3] = target: T2, Zinc finger protein mex-5 (Caenorhabditis elegans, UniProt Q9XUB2); experiment: potency of MEX-5 RNA-binding blockers – biochemical, C. elegans, fluorescence polarization, dose response (AID 1960)
T2 sequence (Q9XUB2 whole entry): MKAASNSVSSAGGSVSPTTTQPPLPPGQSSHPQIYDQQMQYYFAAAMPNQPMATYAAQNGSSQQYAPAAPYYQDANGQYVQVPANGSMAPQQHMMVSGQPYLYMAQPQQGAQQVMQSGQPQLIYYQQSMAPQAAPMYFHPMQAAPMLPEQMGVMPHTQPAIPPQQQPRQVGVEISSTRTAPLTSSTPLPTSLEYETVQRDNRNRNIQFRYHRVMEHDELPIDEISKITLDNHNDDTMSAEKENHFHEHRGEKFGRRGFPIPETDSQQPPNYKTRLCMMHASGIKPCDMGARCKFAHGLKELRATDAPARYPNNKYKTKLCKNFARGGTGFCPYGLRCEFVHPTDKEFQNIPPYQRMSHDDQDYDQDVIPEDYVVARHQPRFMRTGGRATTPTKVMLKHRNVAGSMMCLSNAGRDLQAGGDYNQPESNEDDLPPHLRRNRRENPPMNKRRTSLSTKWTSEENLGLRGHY

[4] = target: T3, RNA-binding protein pos-1 (Caenorhabditis elegans, UniProt G5EF15); experiment: disruptors of C. elegans POS-1 RNA interaction – biochemical, fluorescence polarization, dose response (AID 1964);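 further: purified POS-1 fused to maltose binding protein made in E. coli; potency of compounds blocking POS-1 binding to fluorescent RNA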
T3 sequence (G5EF15 whole entry): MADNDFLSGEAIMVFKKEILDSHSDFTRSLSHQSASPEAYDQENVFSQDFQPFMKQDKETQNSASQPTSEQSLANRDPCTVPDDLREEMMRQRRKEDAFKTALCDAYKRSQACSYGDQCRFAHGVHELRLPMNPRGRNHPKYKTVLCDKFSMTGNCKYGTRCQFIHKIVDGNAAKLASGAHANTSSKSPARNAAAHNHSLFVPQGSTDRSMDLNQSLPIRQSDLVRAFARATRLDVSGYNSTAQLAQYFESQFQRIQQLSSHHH

[5] = viability of uninfected HEp-2 cells – cell-based, HTS, cytotoxicity control for RSV inhibitor project, dose response (AID 2410); assay type: functional; conditions: human respiratory syncytial virus
[6] = target: Cytochrome P450 2C19 (Homo sapiens, UniProt P33261); experiment: Cytochrome panel assay with activity outcomes. Panel member name: p450-cyp2c19 Compounds with AC50 equal or less than 10 uM are considered active; assay type: functional
Chain of Cytochrome P450 2C19 (P33261 whole entry): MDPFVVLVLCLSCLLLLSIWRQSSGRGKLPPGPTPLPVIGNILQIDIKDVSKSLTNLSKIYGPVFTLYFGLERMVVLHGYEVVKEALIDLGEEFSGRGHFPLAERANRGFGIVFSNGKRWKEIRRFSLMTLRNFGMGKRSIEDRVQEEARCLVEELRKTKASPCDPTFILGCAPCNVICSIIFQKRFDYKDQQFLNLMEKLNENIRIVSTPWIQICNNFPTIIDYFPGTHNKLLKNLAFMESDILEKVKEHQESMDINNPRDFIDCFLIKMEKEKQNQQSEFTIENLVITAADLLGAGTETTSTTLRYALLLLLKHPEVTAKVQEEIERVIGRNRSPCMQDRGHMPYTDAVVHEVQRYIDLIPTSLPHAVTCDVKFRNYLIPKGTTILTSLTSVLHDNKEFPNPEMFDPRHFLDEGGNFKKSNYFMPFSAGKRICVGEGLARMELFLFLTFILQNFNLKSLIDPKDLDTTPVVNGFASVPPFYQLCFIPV

[7] = NIH3T3 cell viability loss – ATP luminescence, mouse fibroblasts, counter-screen, dose response (AID 2010); assay type: functional, cell-based;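 further: cells exposed to compound for about 90 hours before reading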
[8] = Trypanosoma cruzi growth suppression in host cells – NIH3T3 host cells, beta-gal luminescence, confirmation (AID 2044); assay type: functional, cell-based;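 further: intracellular parasites grown in NIH/3T3 mouse fibroblasts as host cells; luminescent beta-galactosidase reporter signal from transgenic T. cruzi replicating inside host cells; inhibitors lower the luminescence signal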
[9] = target: T4, Cytochrome P450 1A2 (Homo sapiens, UniProt P05177);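 further: PubChem cytochrome P450 panel assay, CYP1A2 panel member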
T4 sequence (P05177 whole entry): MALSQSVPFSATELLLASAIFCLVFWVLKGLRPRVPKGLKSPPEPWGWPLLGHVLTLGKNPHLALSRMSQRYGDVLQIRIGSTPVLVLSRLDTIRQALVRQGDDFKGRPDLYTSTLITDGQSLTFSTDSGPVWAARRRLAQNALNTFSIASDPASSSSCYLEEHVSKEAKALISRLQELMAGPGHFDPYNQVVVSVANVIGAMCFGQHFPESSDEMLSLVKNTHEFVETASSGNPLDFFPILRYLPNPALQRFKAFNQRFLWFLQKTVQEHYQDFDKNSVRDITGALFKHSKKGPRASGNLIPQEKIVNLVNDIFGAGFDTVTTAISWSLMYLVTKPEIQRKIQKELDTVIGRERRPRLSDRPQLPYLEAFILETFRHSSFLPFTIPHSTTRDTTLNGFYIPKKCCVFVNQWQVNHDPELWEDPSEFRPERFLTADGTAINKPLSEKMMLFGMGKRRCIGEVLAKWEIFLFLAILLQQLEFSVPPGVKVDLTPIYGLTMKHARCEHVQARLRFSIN

Chain of FAD-linked sulfhydryl oxidase ALR (P55789 whole entry): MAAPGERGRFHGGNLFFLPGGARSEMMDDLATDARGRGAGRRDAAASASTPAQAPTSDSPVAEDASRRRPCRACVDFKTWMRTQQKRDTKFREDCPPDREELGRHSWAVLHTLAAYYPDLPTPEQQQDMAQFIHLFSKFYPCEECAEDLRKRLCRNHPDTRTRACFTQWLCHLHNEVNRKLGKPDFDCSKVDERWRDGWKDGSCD

- AC50 [1]: 5.95 µM (active)
SMILES: O=C(O)c1ccc(-n2c(/C=C/c3ccccc3)nc3ccccc3c2=O)cc1

- IC50 [2]: 46.4 µM (active)
SMILES: c1csc(CNc2ccc3c(c2)OCCO3)c1

- IC50 [2]: 127 µM (active)
SMILES: COc1cc(CN2CCC(C(=O)NC3CCCC3)CC2)cc(Br)c1O

SMILES: CN1CCC2(CC1)C(C#N)=C(N)NC(S)=C2C#N
- EC50 [3]: 8.53 µM (active)
- EC50 [4]: 8.05 µM (active)

- EC50 [3]: 18.5 µM (active)
- EC50 [4]: 117 µM (active)
SMILES: COc1cc2[nH]c(C(=O)NN)c(N)c2cc1OC

SMILES: COc1ccc(/C=C2\SC(=S)N(CCC(=O)NC3CCCC3)C2=O)cc1OC
- EC50 [3]: 153 µM (active)
- EC50 [4]: > 300 µM (not active)

SMILES: Clc1ccc(OCC#CCN2CCCCCC2)cc1
- IC50 [2]: 184 µM (active)

SMILES: CCCN(Cc1nnc(-c2ccccc2Cl)o1)C(=O)c1oc2ccccc2c1C
- CC50 [5]: 19.6 µM (active)

- AC50 [6]: inconclusive
SMILES: O=C(Nc1cccc(F)c1)N1CC2(CCN(C(=O)c3ccncc3)CC2)C1

- AC50 [1]: 2.33 µM (active)
SMILES: CN(C)c1ccc(C(C(=O)NC2CCCC2)N(C(=O)c2ccco2)C2CC2)cc1 (configuration not stated)

- EC50 [3]: > 300 µM (not active)
- EC50 [4]: > 300 µM (not active)
SMILES: Cc1ccc2nc3c(cc(C(=O)NCC4CCCO4)c(=N)n3C3CCCC3)c(=O)n2c1 (configuration not stated)

- EC50 [3]: > 300 µM (not active)
- EC50 [4]: > 300 µM (not active)
SMILES: CC(C)Cc1nnc(NC(=O)CCC(=O)N2CC(C)CC(C)C2)s1 (configuration not stated)

- IC50 [2]: 45.1 µM (active)
SMILES: Cc1ccc(CCC(=O)Nc2ccc(N(C)C)cc2)o1

SMILES: CCCCCCCNC(=O)C1(CC2CC(c3ccc(Cl)cc3)=NO2)CCN(C(=O)C2(C)CC2)CC1 (configuration not stated)
- CC50 [5]: 13.5 µM (active)

SMILES: CC(C)CC(=O)C[C@H](O)C(Cl)(Cl)Cl
- AC50 ([6]; read-out: AC50): 7.94 µM (inconclusive)

SMILES: Cc1ccc2cccc(S(=O)(=O)N3CCN(c4cccc(Cl)c4)CC3)c2n1
- CC50 [5]: 46.9 µM (active)

- EC50 [3]: > 300 µM (not active)
- EC50 [4]: > 300 µM (not active)
SMILES: Cc1ccc(C)c(N(C)C(=O)c2coc(=O)c3ccccc23)c1

- AC50 ([6]; read-out: AC50): 5.01 µM (inconclusive)
SMILES: C#CCCCO/N=C1/C[C@@H](O)[C@@H](O)[C@@H]2[C@@H]3C(=O)N(Cc4ccccc4)C(=O)[C@H]3CC[C@H]12

SMILES: Cc1ccccc1C(=O)Nc1cc(-c2cc(C(C)(C)C)oc2C)nn1C
- CC50 [5]: 19.7 µM (active)

- EC50 [3]: 28.9 µM (active)
- EC50 [4]: 52.2 µM (active)
SMILES: CC1(OC(=O)c2ccco2)C(=O)C=C2C=C(c3ccc(C#N)cc3)OC=C2C1=O (configuration not stated)

- AC50 [1]: 8.71 µM (active)
SMILES: Cn1c(S)nnc1CSCc1ccc(Cl)cc1

SMILES: Nc1ccccc1Nc1cc(-c2ccccc2)nn1-c1cccc(Cl)c1
- EC50 [7]: > 60 µM (not active)
- CC50 [5]: 26.3 µM (active)
- EC50 [8]: 5.32 µM (active)

- AC50 [1]: 3.94 µM (active)
- AC50 ([6]; read-out: AC50): 39.8 µM (inconclusive)
- AC50 [9]: 28.2 µM (inconclusive)
SMILES: COc1ccc(-c2[nH]c(-c3ccc(C(=O)O)cc3)nc2-c2ccccc2)cc1

- AC50 ([6]; read-out: AC50): 39.8 µM (inconclusive)
- AC50 [9]: 28.2 µM (inconclusive)
SMILES: O=C(O)CSc1ncnc2sc3c(c12)CCC3

- AC50 [1]: 10.8 µM (active)
SMILES: NC(=O)C1CCN(C(=O)N2c3ccccc3Sc3ccccc32)CC1
